# From patent US20060264414A1, “Fluorous 2,2'-bipyridines and fluorinated biphasic sysems for ligand design” (The Board of Regents, University and Community College …, priority 2005, published 2006)
# Where two headings read alike, the source gives them in different places. Marks after values point to notes of the source that are not given here.
# How the values were obtained:
# [1] = Fluorous partition coefficient, CF3C6F11/toluene, GLC method; format: physicochemical; details: 1:1 v/v perfluoromethylcyclohexane and toluene
# From the text: Fluorous partition coefficients (FPCs) were obtained for 1-4 for a 1:1 v/v biphasic mixture of “fluorous” solvent perfluoromethylcyclohexane, CF3C6F11 and toluene.
# [2] = value from ref. 13; cited from earlier work
# [3] = tested on: Breast Cancer Cells (DC4 and DB-46); assay: Survival studies (Clonogenic Assay); format: cell-based; details: 10 micromolar Pt agent, DC4 and DB-46 cells
# From the text: Plots are appended to this document that provide viable cells vs. concentration of Pt agent.
# [4] = in DMF, known values; cited from earlier work
# [5] = Cyclic voltammetry reduction potentials; format: physicochemical; details: THF; for ΔEp: scan rate 10 V/sec, TBAPF6; for E1/2: vs. SCE, 10 μm Pt ultramicroelectrode
# From the text: THF was found suitable for this study as 1-3 have sufficient solubility and the electrochemical potential window (+1.2 V to −3 V vs. SCE) extends to the potential range of interest.
Molecule,FPC = Cbpy(CF3C6F11)/Cbpy(toluene) [1],reduction potential [4],ΔEp [5],E1/2 [5],other results
FC(F)(F)C(F)(F)C(F)(F)C(F)(F)C(F)(F)C(F)(F)C(F)(F)C(F)(F)C(F)(F)C(F)(F)CCCc1ccnc(-c2cc(CCCC(F)(F)C(F)(F)C(F)(F)C(F)(F)C(F)(F)C(F)(F)C(F)(F)C(F)(F)C(F)(F)C(F)(F)F)ccn2)c1 [Ligand 4],11,,,,fi = fluorophilicity = ln[FPC] [1]: +2.4
"FC(F)(F)C(F)(F)C(F)(F)C(F)(F)C(F)(F)C(F)(F)C(F)(F)C(F)(F)CCCCc1ccnc(-c2cc(CCCCC(F)(F)C(F)(F)C(F)(F)C(F)(F)C(F)(F)C(F)(F)C(F)(F)C(F)(F)F)ccn2)c1 [—(CH2)4Rf8, 4,4′-di-[(CH2)4(CF2)7CF3]-2,2′-bipyridine]",,,,,FPC = Cbpy(CF3C6F11)/Cbpy(toluene) [2]: 0.67^c; fi = fluorophilicity = ln[FPC] [2]: −0.40^c
"[4,4′-Bis(4,4,4-trifluorobutyl)-2,2′-bipyridine]PtCl2 [Complex 1]",,,,,colonies surviving / survival [3]: around 2%
"c1ccc(-c2ccccn2)nc1 [—H, 2,2′-bipyridine]",,−2.60 V,,,
"Cc1ccnc(-c2cc(C)ccn2)c1 [—CH3, 4,4′-dimethyl-2,2′-bipyridine]",no compound in the CF3C6F11 layer,−2.68 V,253 mV,−2.493 V,
CCCCCCCCCc1ccnc(-c2cc(CCCCCCCCC)ccn2)c1 [—(CH2)8CH3],no compound in the CF3C6F11 layer,,299 mV,−2.501 V,
